Values belong to the molecule of their own block, whether it stands above or below them.
Assays:
SCG = test: Protection against NGF deprivation-induced neuronal apoptosis in rat SCG cells after 24 hrs by MTT assay; type: functional, cell-based
[1] = biological target: T1, Mitogen-activated protein kinase 8 (Homo sapiens, UniProt P45983); test: Inhibition of JNK1
[2] = biological target: Mitogen-activated protein kinase 14 (Homo sapiens, UniProt Q16539); test: Inhibition of p38alpha
[3] = biological target: Mitogen-activated protein kinase 10 (Homo sapiens, UniProt P53779); test: Inhibition of JNK3
[4] = biological target: T1, Mitogen-activated protein kinase 8; test: Binding affinity to JNK1
[5] = Oral bioavailability in rat; type: ADME, organism-based; conditions: in vivo
Mus musculus [6] = organism: Mus musculus; test: Inhibition of LPS-induced TNFalpha production in mouse; type: functional
[7] = biological target: Mitogen-activated protein kinase 9 (Homo sapiens, UniProt P45984); test: Inhibition of JNK2
Mus musculus [8] = test: Reduction of fat mass in diet-induced obese mouse at 30 mg/kg, po for 24 days relative to control; type: functional; design: scale not given: the % may be the effect or the level left
Mus musculus [9] = test: Reduction of body weight in diet-induced obese mouse at 30 mg/kg, po for 24 days; type: functional; design: scale not given: the % may be the effect or the level left

T1 sequence (P45983 whole entry): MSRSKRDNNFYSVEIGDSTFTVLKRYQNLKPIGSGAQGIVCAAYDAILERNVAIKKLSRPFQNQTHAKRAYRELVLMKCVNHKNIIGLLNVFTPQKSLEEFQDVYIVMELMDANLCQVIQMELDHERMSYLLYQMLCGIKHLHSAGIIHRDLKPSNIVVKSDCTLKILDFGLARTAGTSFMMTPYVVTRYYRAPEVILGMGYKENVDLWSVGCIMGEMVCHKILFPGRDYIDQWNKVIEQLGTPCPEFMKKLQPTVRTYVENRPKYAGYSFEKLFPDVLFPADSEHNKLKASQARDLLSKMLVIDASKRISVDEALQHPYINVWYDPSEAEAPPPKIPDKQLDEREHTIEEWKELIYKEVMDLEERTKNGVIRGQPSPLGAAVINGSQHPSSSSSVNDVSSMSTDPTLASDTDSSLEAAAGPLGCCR
Mitogen-activated protein kinase 10, sequence (P53779 whole entry): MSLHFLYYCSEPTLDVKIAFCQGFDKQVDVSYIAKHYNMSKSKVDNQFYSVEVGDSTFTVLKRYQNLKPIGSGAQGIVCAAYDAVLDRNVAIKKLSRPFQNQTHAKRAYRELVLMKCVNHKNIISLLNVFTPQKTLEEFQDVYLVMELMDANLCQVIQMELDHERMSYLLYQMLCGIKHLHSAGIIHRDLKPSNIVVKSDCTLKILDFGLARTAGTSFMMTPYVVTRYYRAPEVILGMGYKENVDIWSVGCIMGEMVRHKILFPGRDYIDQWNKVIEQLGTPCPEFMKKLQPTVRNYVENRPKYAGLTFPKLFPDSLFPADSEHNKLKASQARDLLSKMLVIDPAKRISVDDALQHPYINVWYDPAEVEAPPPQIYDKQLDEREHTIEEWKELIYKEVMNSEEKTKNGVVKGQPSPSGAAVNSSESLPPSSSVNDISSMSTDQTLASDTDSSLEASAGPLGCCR
Mitogen-activated protein kinase 14, sequence (Q16539 whole entry): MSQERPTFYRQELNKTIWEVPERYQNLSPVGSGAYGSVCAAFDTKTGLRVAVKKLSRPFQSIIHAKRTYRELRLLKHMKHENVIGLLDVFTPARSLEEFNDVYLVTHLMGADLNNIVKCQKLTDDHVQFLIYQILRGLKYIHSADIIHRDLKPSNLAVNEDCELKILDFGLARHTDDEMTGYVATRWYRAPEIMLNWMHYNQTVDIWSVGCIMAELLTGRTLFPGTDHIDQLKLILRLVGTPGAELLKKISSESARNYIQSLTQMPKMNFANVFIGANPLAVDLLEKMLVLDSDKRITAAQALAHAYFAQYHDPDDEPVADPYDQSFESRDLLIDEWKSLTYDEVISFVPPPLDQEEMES
Mitogen-activated protein kinase 9, sequence (P45984 whole entry): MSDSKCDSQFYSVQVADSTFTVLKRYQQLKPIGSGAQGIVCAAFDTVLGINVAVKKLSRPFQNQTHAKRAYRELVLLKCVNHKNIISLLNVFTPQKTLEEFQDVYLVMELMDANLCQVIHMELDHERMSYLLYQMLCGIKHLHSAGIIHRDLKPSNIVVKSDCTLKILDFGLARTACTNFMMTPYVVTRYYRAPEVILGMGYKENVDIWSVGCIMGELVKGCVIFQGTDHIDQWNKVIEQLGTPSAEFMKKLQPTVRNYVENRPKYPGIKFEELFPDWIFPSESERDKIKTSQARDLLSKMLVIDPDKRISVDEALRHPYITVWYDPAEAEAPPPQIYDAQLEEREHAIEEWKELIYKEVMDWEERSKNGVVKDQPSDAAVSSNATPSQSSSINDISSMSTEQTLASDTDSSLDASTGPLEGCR

Molecule: O=C(NCc1ccc(S(=O)(=O)N2CCC(n3nnc4ccccc43)CC2)s1)c1ccc(Cl)cc1
IC50 (SCG): 1700 nM

Molecule: CN(C)CCCC(=O)Nc1cc(C(=O)O)cc(-c2n[nH]c3cc(Nc4ccccc4Cl)ccc23)c1
IC50 [1]: 101 nM
IC50 [2]: 903 nM
IC50 [3]: 3 nM

Molecule: H-RPKRPTTLNLF-OH
Kd [4]: 420 nM

Molecule: N#C/C(=C1/Nc2ccccc2S1)c1ccnc(NCCc2cccnc2)n1
bioavailability [5]: 38%
ED50 (Mus musculus [6]): 3 mg/kg

Molecule: CCCNc1nccc(-c2c(-c3ccc(F)cc3)nc3n2[C@H](Cc2ccc(OC)cc2)CC3)n1
IC50 [2]: 54 nM
IC50 [3]: 10.9 nM

Molecule: c1ccc(Nc2ccc3c(-c4ccccc4)n[nH]c3c2)cc1
IC50 [1]: > 10000 nM

Now from value to molecule, other results behind:

IC50 [2]: 46 nM
Molecule: O=C(NCCCn1cnc(-c2ccc(F)cc2)c1-c1ccncc1)c1ccccc1

Ki [1]: 3 nM
Ki [3]: 5 nM
Ki [7]: 6 nM
Molecule: CN(C)c1c(-c2ccnc(N[C@H]3CC[C@H](O)CC3)n2)cnn1Cc1ccccc1

Ki [1]: 9 nM
Ki [3]: 16 nM
Ki [7]: 17 nM
Molecule: O[C@H]1CC[C@H](Nc2nccc(-c3c[nH]nc3C3CCCOC3)n2)CC1 (some centres undefined)
Activity (Mus musculus [8]): 30.1%
Activity (Mus musculus [9]): 13%

From ChEMBL document CHEMBL1156270, “Small molecule JNK (c-Jun N-terminal kinase) inhibitors” (J Med Chem, 2010)
